Laboratory results: patent US12364679B2, “Esters for treatment of ocular inflammatory conditions” (Johnson & Johnson Vision Care, Inc., priority 2011, dated 2025)

Experiments:
[1] = Uptake by senofilcon contact lenses from IPA solution, gas chromatography; format: physicochemical
Experimental: ALA-EE was dissolved in isopropanol (IPA) at the concentration of 0.05 or 0.5%. Silicone hydrogel contact lenses (senofilcon, commercially available as ACUVUE® OASYS® with […]® Plus lenses) were then allowed to soak in the ALA-EE-containing IPA for up to 1 hour at room temperature, followed by soaking in ALA-EE containing IPA/packing solution (70% IPA/30% packing solution) for up to 1 hour, rinsing in packing solution, and packaging of lenses in the packing solution. ALA-EE uptake by the contact lenses was quantified by gas chromatography.
A comparative silicone hydrogel contact lens that incorporated alpha linolenic acid (ALA), rather than the ester, was prepared following the same protocol as Example 6.

[2] = tested on: transepithelial permeability in vitro model; test: Transepithelial permeability in vitro model (TEP test), fluorescein leakage; format: cell-based; conditions: 0.2%, relative to vehicle/controls
Experimental: The compositions of Examples 1A and 1B and Comparative Example 2A were tested in vitro as follows. A transepithelial permeability in vitro model (TEP test) was used to assess fluorescein leakage (or increased transepithelial permeability) with the free acid in comparison with the ester form of the alpha linolenic acid.

[3] = Uptake by narafilcon B contact lenses from propylene glycol solution, gas chromatography; format: physicochemical; conditions: for ALA-EE uptake: narafilcon B
Experimental: The alpha linolenic acid ethyl ester (ALA-EE) was dissolved in propylene glycol (PG) at concentrations of 0.05 and 0.5%, and silicon hydrogel lenses (Narafilcon B lenses (ACUVUE® TrueEye®)) were hydrated or soaked in the ALA-EE-containing propylene glycol solution for one hour at room temperature, followed by rinsing in DI water and repackaging of lenses in the packing solution. The lenses were packaging in borate buffer packing solution with 50 ppm methyl cellulose and autoclaved at 121° C. for 19 minutes. ALA-EE was quantified by gas chromatography.

[4] = tested on: corneal epithelium tissue construct (HCE construct, SkinEthic); conditions: human, 8 h
Experimental: (§1) The model uses a corneal epithelium tissue construct (e.g., HCE construct manufactured by SkinEthic).
(§2) The esterified anti-inflammatory lipid mediator dose-responses were then evaluated in the construct, whereby 30 microliters of the rewetting drop was topically applied to the tissue for 8 or 24 hours, and cell viability was then quantified along with a subset of selected potential biomarkers within the tissue culture media.

[5] = tested on: "contact lens induced dry eye" subjects; test: Comfort upon instillation to the eye (non-dispensing clinical studies); conditions: human, in vivo
Experimental: Preliminary non-dispensing clinical studies were conducted to further assess the use of omega-three fatty acid compositions. A 0.05 wt. % concentration ester version of an omega-three fatty acid was instilled on three “contact lens induced dry eye” subjects (each with at least one sign and one symptom of contact lens induced dry eye) without any acute ocular discomfort or physiological findings. Similarly, a 0.2 wt. % concentration ester version of the omega-three fatty acid was instilled on four “contact lens induced dry eye” subjects without any acute ocular discomfort or physiological findings.

[6] = tested on: corneal epithelium tissue construct (HCE construct, SkinEthic); test: Corneal epithelial tissue model, cell viability (MTT), 8 hour exposure; conditions: 0.001 and 0.01%
Experimental: as §1, §2

Molecule | uptake of ALA by the contact lenses ([1]; 0.05% ALA solution in IPA) [micrograms per lens] | uptake of ALA by the contact lenses ([1]; 0.5% ALA solution in IPA) [micrograms per lens] | effect on transepithelial permeability / fluorescein leakage [2] | hydrolysis of the ester to the acid ([3]; narafilcon B lens, PG loading, autoclaved 121° C.) | ALA-EE uptake ([3]; 0.05% ALA-EE solution) [micrograms per lens] | ALA-EE uptake ([3]; 0.5% ALA-EE solution) [micrograms per lens] | ALA-EE uptake ([1]; 0.05% ALA-EE solution in IPA) [micrograms per lens] | ALA-EE uptake ([1]; 0.5% ALA-EE solution in IPA) [micrograms per lens] | hydrolysis of ester to free acid form ([1]; senofilcon lens loading from IPA) | impact on the in vitro endpoint, times less than linolenic acid (ALA) [4] [times] | response on the eye (acute ocular discomfort) [5] | cytotoxicity in the construct [6]
CC/C=C\C/C=C\C/C=C\CCCCCCCC(=O)O [ALA, alpha-linolenic acid, reference compound] | 23 | 300 | significant increase in fluorescein leakage |  |  |  |  |  |  |  |  | 
CC/C=C\C/C=C\C/C=C\CCCCCCCC(=O)OCC [ALA-EE, ethyl linolenate] |  |  | behaved similarly to the vehicle | no detectable hydrolysis | 91 | 721 | 54 | 611 | did not hydrolyze to the free acid form | 10 | lack of acute ocular discomfort | 
benzalkonium chloride [BAK] |  |  |  |  |  |  |  |  |  |  |  | non-cytotoxic
